Target: T1, hTop1 (Homo sapiens, UniProt P11387)
T1 construct: gene TOP1; expressed in S. cerevisiae top1 null EKY3, anti-FLAG purified
T1 sequence (P11387 1-765): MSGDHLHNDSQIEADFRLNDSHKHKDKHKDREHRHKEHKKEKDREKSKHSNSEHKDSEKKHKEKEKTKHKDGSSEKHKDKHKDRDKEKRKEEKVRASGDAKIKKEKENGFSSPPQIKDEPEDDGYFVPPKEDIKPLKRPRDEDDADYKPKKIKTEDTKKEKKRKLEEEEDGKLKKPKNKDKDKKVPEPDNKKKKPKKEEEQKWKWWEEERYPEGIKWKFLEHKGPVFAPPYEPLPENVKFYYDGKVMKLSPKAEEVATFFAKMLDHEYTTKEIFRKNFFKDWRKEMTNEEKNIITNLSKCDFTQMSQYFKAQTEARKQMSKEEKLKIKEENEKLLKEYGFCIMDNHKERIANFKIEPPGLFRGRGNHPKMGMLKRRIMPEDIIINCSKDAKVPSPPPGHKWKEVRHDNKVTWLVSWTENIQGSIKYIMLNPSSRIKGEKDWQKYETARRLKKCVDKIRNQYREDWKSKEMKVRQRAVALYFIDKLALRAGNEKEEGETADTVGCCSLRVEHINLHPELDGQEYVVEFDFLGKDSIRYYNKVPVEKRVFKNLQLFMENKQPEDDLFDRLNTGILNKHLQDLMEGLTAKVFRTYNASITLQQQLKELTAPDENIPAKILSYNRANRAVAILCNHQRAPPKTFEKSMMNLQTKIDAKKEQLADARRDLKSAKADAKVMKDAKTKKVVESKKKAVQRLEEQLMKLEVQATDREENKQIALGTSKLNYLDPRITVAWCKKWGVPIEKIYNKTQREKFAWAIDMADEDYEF
Assay: stabilisation of DNA cleavage complex (CL25/CP25, gel); also relaxation and religation assays
Assay type: biochemical
Conditions: 100 µM CPT, 20 nM duplex CL25/CP25, 1 min, 25 °C, pH 7.5, 5 mM MgCl2, 5 mM CaCl2, 150 mM KCl; binds covalent enzyme-DNA complex

For `CC[C@@]1(O)C(=O)OCc2c1cc1n(c2=O)Cc2cc3ccccc3nc2-1` [CPT, camptothecin], the “% cleavage complex at 100 μM” value was “In presence of CPT the hTop1 cleavage is strongly increased”.
